Assay results as given in PubChem BioAssay (NCI).
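Tested at 5 concentrations; 48 h exposure; 96-well plates; endpoints linearly interpolated, else capped at highest concentration. GI50 marks 50% less growth. TGI is the concentration that stops growth completely.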

Columns and labels:
Experiment in all cases: DTP human tumour cell line panel, 48 h
[1] = tested on: 786-0 renal
[2] = tested on: A549 NSCLC
[3] = tested on: ACHN renal
[4] = tested on: BT-549 breast
[5] = tested on: CAKI-1 renal
[6] = tested on: CCRF-CEM leukemia
[7] = tested on: COLO 205 colon
[8] = tested on: DU-145 prostate
[9] = tested on: EKVX NSCLC
[10] = tested on: HCC-2998 colon
[11] = tested on: HCT-116 colon
[12] = tested on: HCT-15 colon
[13] = tested on: HOP-62 NSCLC
[14] = tested on: HT29 colon
[15] = tested on: IGROV1 ovarian
[16] = tested on: K-562 leukemia
[17] = tested on: M14 melanoma
[18] = tested on: MALME-3M melanoma
[19] = tested on: MDA-MB-231 breast
[20] = tested on: MDA-MB-435
[21] = tested on: MOLT-4 leukemia
[22] = tested on: NCI-H460 lung
[23] = tested on: NCI-H522 lung
[24] = tested on: NCI/ADR-RES ovarian
[25] = tested on: OVCAR-3 ovarian
[26] = tested on: OVCAR-5 ovarian
[27] = tested on: PC-3 prostate
[28] = tested on: RPMI-8226 leukemia
[29] = tested on: RXF 393 renal
[30] = tested on: SF-268 CNS
[31] = tested on: SF-295 CNS
[32] = tested on: SF-539 CNS
[33] = tested on: SK-MEL-2 melanoma
[34] = tested on: SK-OV-3 ovarian
[35] = tested on: SN12C renal
[36] = tested on: SNB-19 CNS
[37] = tested on: SNB-75 CNS
[38] = tested on: SR leukemia
[39] = tested on: SW-620 colon
[40] = tested on: T-47D breast
[41] = tested on: TK-10 renal
[42] = tested on: U251 CNS
[43] = tested on: UACC-257 melanoma
[44] = tested on: UACC-62 melanoma
[45] = tested on: UO-31 renal

`Cc1nn2c(/C=N/N=C(N)N)c(-c3ccc(Cl)c([N+](=O)[O-])c3)nc2s1` was tested, and the GI50 [1] was 0.249 µM, the TGI [1] was 0.442 µM and the GI50 [2] was 4.96 µM. The TGI [2] was 17.5 µM, the GI50 [3] was 0.966 µM and the TGI [3] was 2.58 µM. It also gave a GI50 [4] of 21.6 µM, a TGI [4] of 48.3 µM and a GI50 [5] of 1.47 µM. For the same compound, the TGI [5] was 2.85 µM, the GI50 [6] was 0.368 µM and the TGI [6] was 0.751 µM. It also gave a GI50 [7] of 0.457 µM, a TGI [7] of 61.7 µM and a GI50 [8] of 2.32 µM. The TGI [8] was 4.98 µM, the GI50 [9] was 25.3 µM and the TGI [9] was 69.6 µM. It also gave a GI50 [10] of 1.42 µM, a TGI [10] of 2.91 µM and a GI50 [11] of 0.192 µM. The TGI [11] was 0.374 µM, the GI50 [12] was 1.43 µM and the TGI [12] was 3.72 µM. For the same compound, the GI50 [13] was 0.262 µM, the TGI [13] was 0.529 µM and the GI50 [14] was 0.236 µM. It also gave a GI50 [15] of 6.2 µM, a TGI [15] of 22.1 µM and a GI50 [16] of 2.98 µM. For the same compound, the TGI [16] was 9.63 µM, the GI50 [17] was 1.72 µM and the TGI [17] was 3.3 µM. It also gave a GI50 [18] of 2.44 µM, a TGI [18] of 4.14 µM and a GI50 [19] of 2.03 µM. The TGI [19] was 3.66 µM, the GI50 [20] was 0.204 µM and the TGI [20] was 0.363 µM. The GI50 [21] was 2.88 µM, the TGI [21] was 5.61 µM and the GI50 [22] was 1.18 µM. The GI50 [23] was 7.04 µM, the TGI [23] was 46.7 µM and the GI50 [24] was 3.61 µM. It also gave a TGI [24] of 15 µM, a GI50 [25] of 0.488 µM and a TGI [25] of 1.52 µM. For the same compound, the GI50 [26] was 1.42 µM, the TGI [26] was 3.15 µM and the GI50 [27] was 1.14 µM. The TGI [27] was 2.83 µM, the GI50 [28] was 0.791 µM and the TGI [28] was 1.76 µM. The GI50 [29] was 3.4 µM, the GI50 [30] was 1.22 µM and the GI50 [31] was 0.615 µM. It also gave a TGI [31] of 1.94 µM, a GI50 [32] of 2.07 µM and a TGI [32] of 3.63 µM. It also gave a GI50 [33] of 2.53 µM, a TGI [33] of 6.46 µM and a GI50 [34] of 2.85 µM. It also gave a TGI [34] of 6.75 µM, a GI50 [35] of 0.763 µM and a TGI [35] of 1.58 µM. It also gave a GI50 [36] of 0.543 µM, a TGI [36] greater than 100 µM and a GI50 [37] of 1.36 µM. The TGI [37] was 2.94 µM, the GI50 [38] was 2.53 µM and the TGI [38] was 4.9 µM. For the same compound, the GI50 [39] was 0.444 µM, the TGI [39] was 1.72 µM and the GI50 [40] was 0.481 µM. For the same compound, the GI50 [41] was 2.06 µM, the TGI [41] was 3.56 µM and the GI50 [42] was 0.285 µM. The TGI [42] was 0.597 µM, the GI50 [43] was 6.14 µM and the TGI [43] was 11.7 µM. For the same compound, the GI50 [44] was 2.06 µM, the TGI [44] was 3.58 µM and the GI50 [45] was 20.9 µM. For the same compound, the TGI [45] was 41.1 µM.
